# Legend:
# P. falciparum MSP142 = molecular target: T1, P. falciparum MSP142 (Plasmodium falciparum, UniProt Q8I0U8); test: binding of suramin to MSP1 by fluorimetry
# T1 construct: was used to express a His6-tagged MSP142 protein; His6; made in house; host or cells: E. coli BL21 (DE3)
# Description: The pETATPf MSP142 plasmid (described by Angov et al, 2003 Mol. Biochem. Parasitol. 128, 195-204) was used to express a His6-tagged MSP142 protein (P. falciparum 3D7 clone, Accession Number Z35327). The DNA was used to transform E. coli BL21 (DE3) cells and then clones were selected on plates of agar containing ampicillin. Cells expressing the modified MSP142 were grown to mid log phase (OD6000.5-0.8) at 37° C., then after the incubation temperature had been reduced to 25° C., the protein expression was induced by addition of 0.1 mM IPTG. After 2 h of further growth the bacterial cells were harvested by centrifugation. The resulting cell paste was resuspended in lysis buffer (10 mM sodium phosphate, 50 mM NaCl, 10 mM imidazole, pH 6.2) and lysed by microfluidization. […]
# The intrinsic fluorescence of suramin was used to determine its capacity to bind to the various MSP1-derived proteins. The fluorescence was measured using a Perkin Elmer LS-3B or a Spex Fluoro Max 2 fluorimeter. Suramin was excited at a wavelength of 315 or 330 nm with 2.5 nm resolution, the emission spectra were measured at wavelengths ranging from 350-450 nm. Suramin and the MSP1 proteins were diluted in 20 mM NaH2PO4, 150 mM NaCl at pH 7.2 and analysed at 10 or 20° C. […] The Kd for the suramin-MSP1 binding was determined from three independent experiments. […]
# P. vivax MSP133 = test: binding of suramin by fluorimetry
# Description: P. vivax MSP133 was expressed using the P. vivax MSP142 clone, above, as a template for PCR, followed by ligation of the product into vector pET30Xa/LIC. The sequence runs from Asp 1325 to Ser 1618 (Accession number A39401) following the N-terminal purification tag. The vector was used to transform BL21(DE3)pLysS cells. For expression, a culture of the transformed cells was induced at an OD600 of 0.6-0.8 at 37° C. with 1 mM IPTG for 3 h. The cells were harvested by centrifugation and the cell pellet lysed using the Bugbuster protein extraction reagent (Novagen). The cell lysate was cleared by centrifugation and the supernatant loaded directly onto a Ni-NTA column. […]
# The intrinsic fluorescence of suramin was used to determine its capacity to bind to the various MSP1-derived proteins. The fluorescence was measured using a Perkin Elmer LS-3B or a Spex Fluoro Max 2 fluorimeter. Suramin was excited at a wavelength of 315 or 330 nm with 2.5 nm resolution, the emission spectra were measured at wavelengths ranging from 350-450 nm. Suramin and the MSP1 proteins were diluted in 20 mM NaH2PO4, 150 mM NaCl at pH 7.2 and analysed at 10 or 20° C. […] The Kd for the suramin-MSP1 binding was determined from three independent experiments.
# MSP142 [1] = molecular target: T2, MSP142 (Plasmodium falciparum, UniProt Q8I0U8); test: competition binding of analogues 258 and 264 against suramin; conditions: MSP142 0.1 mg/ml, 1 hour
# Description: MSP142 (0.1 mg/ml) and fixed concentrations of analogue 258 (5 μM) or 264 (10 μM) were premixed and 90 μL added to a 384-well black polypropylene plate. Suramin was added to give a final concentration in the range 0.01 to 200 μM in a total reaction volume of 100 μL. The plates were incubated at room temperature protected from light for 1 hour, and then read as before. Results are shown in FIG. 10, which is a graph of fluorescence (arbitary units) against concentration of suramin competitor for analogue 258 (white squares) and 264 (black circles).
# Target sequence in this assay (Q8I0U8 1327-1699): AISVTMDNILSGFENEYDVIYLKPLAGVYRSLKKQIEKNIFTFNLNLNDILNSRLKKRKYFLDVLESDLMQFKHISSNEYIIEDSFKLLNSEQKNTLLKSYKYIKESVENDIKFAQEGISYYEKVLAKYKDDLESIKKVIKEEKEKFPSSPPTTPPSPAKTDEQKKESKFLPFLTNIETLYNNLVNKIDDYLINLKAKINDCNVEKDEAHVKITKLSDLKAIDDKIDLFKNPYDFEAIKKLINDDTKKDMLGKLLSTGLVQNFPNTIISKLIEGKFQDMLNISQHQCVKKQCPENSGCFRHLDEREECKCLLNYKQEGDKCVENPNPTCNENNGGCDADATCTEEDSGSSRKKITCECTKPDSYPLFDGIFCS
# MSP142 [2] = molecular target: T2, MSP142; test: P. falciparum MSP1 secondary processing assay (merozoites, Western blot); format: biochemical; set-up: Merozoites were purified as described previously; endogenous in cells; host or cells: purified P. falciparum merozoites released from mature schizonts
# Description: Merozoites were purified as described previously (Blackman 1994 Methods Cell Biol. 45, 213-220) after release from mature schizonts into growth medium supplemented with 2 mM EGTA. Merozoites were harvested by centrifugation, followed by sequential passage through pre-wetted filters of 3 and 1.2 μm pore size. Merozoites were washed in Ca^2+- and Mg^2+-free PBS in the presence of protease inhibitors (leupeptin, antipain and aprotinin at 10 μg ml^−1). The merozoites were then washed and resuspended in 50 mM Tris-HCl pH 7.2, 5 mM CaCl2, 1 mM MgCl2, plus leupeptin, antipain and aprotinin at 10 μg ml^−1 (processing buffer), and divided into 18 μl aliquots. Two microlitres of either diluted compound or reaction buffer were added and the samples incubated for 1 h at 37° C. Control assays included those in which processing was prevented by immediate addition of either SDS, 1 mM PMSF or 5 mM EGTA; and those in the absence of compound or in the presence of 0.2 mM TLCK (tosyl-L-lysyl chloromethyl ketone). After 1 h the reaction was stopped, and MSP1 processing was analysed using a Western blot-based assay (Blackman 1994 Methods Cell Biol. 45, 213-220). The blots were probed with a rabbit anti-MSP133/MSP142 antibody and the bands corresponding to MSP142 and MSP133 polypeptides were visualised by enhanced chemiluminescence.
# Purified merozoites were incubated in the presence or absence of suramin or NTS and polypeptides subjected to SDS-PAGE and Western blotting.
# Target sequence in this assay (Q8I0U8 20-1326): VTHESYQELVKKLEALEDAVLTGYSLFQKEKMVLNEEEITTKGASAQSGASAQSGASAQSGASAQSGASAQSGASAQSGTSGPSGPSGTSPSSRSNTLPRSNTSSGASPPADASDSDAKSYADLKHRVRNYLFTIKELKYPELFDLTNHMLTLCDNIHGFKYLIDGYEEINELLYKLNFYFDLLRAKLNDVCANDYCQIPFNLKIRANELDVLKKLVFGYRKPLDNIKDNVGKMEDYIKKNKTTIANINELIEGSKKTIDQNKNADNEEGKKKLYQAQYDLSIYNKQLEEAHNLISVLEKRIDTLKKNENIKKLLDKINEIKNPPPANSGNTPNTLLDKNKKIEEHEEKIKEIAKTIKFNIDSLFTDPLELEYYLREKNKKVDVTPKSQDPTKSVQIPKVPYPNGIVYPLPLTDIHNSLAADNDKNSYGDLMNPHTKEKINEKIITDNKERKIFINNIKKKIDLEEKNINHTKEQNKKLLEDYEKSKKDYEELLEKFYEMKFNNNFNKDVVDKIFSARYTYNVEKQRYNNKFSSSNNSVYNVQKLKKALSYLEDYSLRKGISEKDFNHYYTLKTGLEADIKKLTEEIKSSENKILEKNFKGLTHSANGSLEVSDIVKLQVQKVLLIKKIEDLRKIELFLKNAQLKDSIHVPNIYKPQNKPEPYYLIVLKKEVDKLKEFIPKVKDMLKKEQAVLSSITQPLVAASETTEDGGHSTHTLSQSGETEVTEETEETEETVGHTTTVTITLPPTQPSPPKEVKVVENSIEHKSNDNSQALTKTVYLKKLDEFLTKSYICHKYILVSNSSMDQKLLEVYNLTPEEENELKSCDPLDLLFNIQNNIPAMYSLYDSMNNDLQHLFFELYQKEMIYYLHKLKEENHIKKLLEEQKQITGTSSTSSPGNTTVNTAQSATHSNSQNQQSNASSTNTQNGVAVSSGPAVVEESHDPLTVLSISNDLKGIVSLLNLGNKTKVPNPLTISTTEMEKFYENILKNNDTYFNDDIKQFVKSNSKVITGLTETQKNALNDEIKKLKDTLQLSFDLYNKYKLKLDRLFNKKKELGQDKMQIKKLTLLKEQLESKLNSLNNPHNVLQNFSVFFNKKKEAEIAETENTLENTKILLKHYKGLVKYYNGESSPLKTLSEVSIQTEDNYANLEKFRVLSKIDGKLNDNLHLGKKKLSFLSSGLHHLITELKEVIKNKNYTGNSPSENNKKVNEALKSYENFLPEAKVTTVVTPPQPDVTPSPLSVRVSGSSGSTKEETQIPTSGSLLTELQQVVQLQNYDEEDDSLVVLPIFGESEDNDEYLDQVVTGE
# Target sequence in this assay (Q8I0U8 1327-1699): as the sequence (Q8I0U8 1327-1699) above
# T1 sequence (Q8I0U8 1327-1699): as above
smiles,measurement,setting,value
Cc1ccc(C(=O)Nc2ccc(S(=O)(=O)O)c3cc(S(=O)(=O)O)cc(S(=O)(=O)O)c23)cc1NC(=O)c1cccc(NC(=O)Nc2cccc(C(=O)Nc3cc(C(=O)Nc4ccc(S(=O)(=O)O)c5cc(S(=O)(=O)O)cc(S(=O)(=O)O)c45)ccc3C)c2)c1 [suramin],Kd,P. falciparum MSP142,0.22 µM
same,change of suramin emission intensity on binding to MSP142,P. falciparum MSP142; excited at 315 nm,pronounced increase in emission intensity
same,enhancement of intrinsic suramin fluorescence on binding,P. vivax MSP133,large binding-induced enhancements
same,IC50,"MSP142 [1]; IC50, displacement of analogue 258 from MSP1 by suramin, analogue 258 at 5 μM",8 µM
same,IC50,"MSP142 [1]; IC50, displacement of analogue 264 from MSP1 by suramin, analogue 264 at 10 μM",3 µM
same,inhibition of MSP142 secondary processing,"MSP142 [2]; 200 μM, 1 h at 37° C.",absence of MSP133
same,dose dependence of inhibition of MSP142 processing (FIG. 3B),MSP142 [2]; 1.25-200 μM suramin,dose-dependent

# — patent US20070003987A1, “Screening method for substance binding to merozoite surface protein-1/42” (priority 2003, published 2007)
